Patent US4002530A, “6-Aminopenicillanic acid derivative” (Recherche et Industrie Therapeutiques (R.I.T.), priority 1975, dated 1977)
Converted amounts (≈) assume the structure as drawn. Like-named read-outs stand apart in the source and are kept apart here.

How the values were obtained:
[1] = test system: Brucella abortus; assay: microbe, parasite or virus in culture; format: cell-based; conditions: 20 h, read-out: Minimum Inhibitory concentration
[2] = test system: Bacillus subtilis; assay: broth dilution test, minimum inhibitory concentration; format: cell-based; conditions: about 20 hours at 35° C, tested as monoammonium salt
[3] = test system: Salmonella typhimurium; assay: as above; format: cell-based; conditions: Salmonella enterica, about 20 hours at 35° C, tested as monoammonium salt
[4] = test system: E. coli Pen. resistant; assay: as above; format: cell-based; conditions: Escherichia coli, penicillin resistant, about 20 hours at 35° C, tested as monoammonium salt
[5] = in vivo; set-up: species or system mice; conditions: mouse, sc, 20 mg/kg
Excerpt: (§1) Plasma samples were adequately diluted with sterile water and assayed according to the usual agar diffusion method, using Bacillus subtilis ATCC 6633 as the test organism.

[6] = test system: Alcaligenes viscolactis; assay: agar-diffusion method; format: cell-based
Excerpt: The testing of samples can be carried out by the well known agar-diffusion method on Petri dishes or on plates.

[7] = test system: Salmonella meleagridis; assay: broth dilution test, minimum inhibitory concentration; format: cell-based; conditions: about 20 hours at 35° C, tested as monoammonium salt
[8] = test system: Gram-positive and Gram-negative microorganisms; assay: in vivo activity against microorganisms; set-up: species or system mice
Description: (§2) Comparative trials with ampicillin were performed in vivo according to the usual mice protection test procedure. The test compound was administered in graded dilutions to mice either subcutaneously (s.c.) in water or orally (or.) in combination with calcium carbonate one hour after intravenous infection with uniformly lethal doses of the test organism.

[9] = test system: Salmonella panama 20; assay: mice protection test; format: in vivo; conditions: Salmonella enterica, 20, sc, 72 h; s.c., one hour after intravenous infection, observed 3 days; read-out: ED50 (total dose required to protect 50% of the infected mice)
Description: as §2

[10] = test system: Salmonella brandebourg 22; assay: mice protection test; format: in vivo; conditions: Salmonella, 22, sc, 72 h; s.c., one hour after intravenous infection, observed 3 days; read-out: ED50 (total dose required to protect 50% of the infected mice)
Description: as §2

[11] = test system: Escherichia coli 9; assay: mice protection test; format: in vivo; conditions: Escherichia coli, 9, sc, 72 h; s.c., one hour after intravenous infection, observed 3 days; read-out: ED50 (total dose required to protect 50% of the infected mice)
Description: as §2

[12] = test system: Vibrio parahaemoliticus 194; assay: mice protection test; format: in vivo; conditions: Vibrio, 194, 72 h; oral with calcium carbonate, one hour after intravenous infection, observed 3 days; read-out: ED50 (total dose required to protect 50% of the infected mice)
Description: as §2

[13] = test system: Escherichia coli 47; assay: mice protection test; format: in vivo; conditions: Escherichia coli, 47, sc, 72 h; s.c., one hour after intravenous infection, observed 3 days; read-out: ED50 (total dose required to protect 50% of the infected mice)
Description: as §2

[14] = test system: Proteus mirabilis 11; assay: mice protection test; format: in vivo; conditions: Proteus mirabilis, 11, sc, 72 h; s.c., one hour after intravenous infection, observed 3 days; read-out: ED50 (total dose required to protect 50% of the infected mice)
Description: as §2

[15] = test system: Salmonella enteritidis 24; assay: mice protection test; format: in vivo; conditions: Salmonella enterica, sc, 72 h, s.c., one hour after intravenous infection, observed 3 days, read-out: ED50 (total dose required to protect 50% of the infected mice)
Description: as §2

[16] = test system: Staphylococcus aureus 663; assay: mice protection test; format: in vivo; conditions: Staphylococcus aureus, 663, sc, 72 h; s.c., one hour after intravenous infection, observed 3 days; read-out: ED50 (total dose required to protect 50% of the infected mice)
Description: as §2

[17] = test system: Shigella flexneri 25; assay: mice protection test; format: in vivo; conditions: Shigella flexneri, 25, sc, 72 h; s.c., one hour after intravenous infection, observed 3 days; read-out: ED50 (total dose required to protect 50% of the infected mice)
Description: as §2

[18] = test system: Klebsiella pneumoniae SK&F 4200; assay: mice protection test; format: in vivo; conditions: 72 h, one hour after intravenous infection, observed 3 days, read-out: ED50 (total dose required to protect 50% of the infected mice)
Description: as §2

[19] = test system: Vibrio el tor; assay: broth dilution test, minimum inhibitory concentration; format: cell-based; conditions: about 20 hours at 35° C, tested as monoammonium salt
[20] = test system: Shigella sonnei; assay: as above; format: cell-based; conditions: about 20 hours at 35° C, tested as monoammonium salt
Description: (§3) Antibiotic RIT D-2214 has been tested in form of the mono ammonium salt in position 3 of the penam nucleus and, for that reason, is herein below charcterized as this monoammonium salt.
(§4) The inhibitory levels were determined by the broth dilution test. A series of tubes containing varied concentrations of the monoammonium salt of antibiotic RIT D-2214 were inoculated with the test organism to determine the minimum concentration of the ammonium salt of antibiotic RIT D-2214 in mcg/ml. in the broth substrate which inhibited organism growth for a period of about twenty hours at 35° C.

[21] = test system: Staphylococcus aureus; assay: as above; format: cell-based; conditions: about 20 hours at 35° C, tested as monoammonium salt
Description: as §3, §4

[22] = stability in water solution; format: physicochemical; conditions: 4° C, not more than 7 days
[23] = in vivo; set-up: species or system dogs; conditions: dog, sc, 20 mg/kg
Excerpt: as §1

[24] = in vivo; set-up: species or system rats; conditions: rat, sc, 20 mg/kg
Excerpt: as §1

[25] = test system: Bordetella bronchiseptica; assay: broth dilution test, minimum inhibitory concentration; format: cell-based; conditions: about 20 hours at 35° C, tested as monoammonium salt
[26] = test system: Salmonella panama; assay: as above; format: cell-based; conditions: Salmonella enterica, about 20 hours at 35° C, tested as monoammonium salt
[27] = test system: Gram-positive and Gram-negative bacteria; assay: inhibitory activity against growth of bacteria; format: cell-based; conditions: Gram-positive and Gram-negative bacteria
Description: as §3, §4

[28] = test system: Escherichia coli; assay: broth dilution test, minimum inhibitory concentration; format: cell-based; conditions: 20 h, read-out: Minimum Inhibitory concentration
[29] = test system: Salmonella anatum; assay: as above; format: cell-based; conditions: Salmonella enterica, about 20 hours at 35° C, tested as monoammonium salt

Structure (SMILES): CC1(C)S[C@@H]2[C@H](NC(=O)CSC[C@@H](N)C(=O)O)C(=O)N2[C@H]1C(=O)O [RIT D-2214, 6-(D)-{[(2-amino-2-carboxy)-ethylthio]-acetamido}-penicillanic acid]
- MIC [1]: 20 µg/mL (≈ 53 µM)
- MIC [2]: 0.3 µg/mL
- MIC [3]: 40 µg/mL
- MIC [4]: 80 µg/mL
- concentration at 5 min [5]: 13000 ng/mL
- concentration at 0.25 h [5]: 15000 ng/mL
- concentration at 0.5 h [5]: 10000 ng/mL
- concentration at 1 h [5]: 6000 ng/mL
- sensitivity of Alcaligenes viscolactis [6]: very high sensitivity
- MIC [7]: 0.6 µg/mL
- in vivo activity ([8]; Gram-positive and Gram-negative microorganisms): exhibits in vivo activity
- efficacy when administered orally ([8]; oral): less advantageous when administered orally
- ED50 [9]: < 10 mg/kg
- ED50 [10]: 13 mg/kg
- ED50 [11]: 10.9 mg/kg
- ED50 [12]: 22.7 mg/kg
- ED50 [13]: < 10 mg/kg
- ED50 [14]: < 10 mg/kg
- ED50 [15]: 13.5 mg/kg
- ED50 [16]: < 11 mg/kg
- ED50 [17]: 52.5 mg/kg
- ED50 ([18]; oral with calcium carbonate): 25.3 mg/kg
- ED50 ([18]; sc, s.c.): < 11 mg/kg
- MIC [19]: 0.6 µg/mL
- MIC [20]: 20 µg/mL
- MIC [21]: 1.25 µg/mL
- stability in water solution [22]: relatively stable
- concentration at 0.25 h [23]: 18000 ng/mL
- concentration at 0.5 h [23]: 23000 ng/mL
- concentration at 1 h [23]: 22500 ng/mL
- concentration at 2 h [23]: 9000 ng/mL
- concentration at 5 min [24]: 12000 ng/mL
- concentration at 0.25 h [24]: 23000 ng/mL
- concentration at 0.5 h [24]: 17000 ng/mL
- concentration at 1 h [24]: 12000 ng/mL
- concentration at 2 h [24]: 7500 ng/mL
- MIC [25]: 0.6 µg/mL
- MIC [26]: 40 µg/mL
- inhibitory activity against the growth of bacteria [27]: exhibits inhibitory activity
- MIC [28]: 1.25 µg/mL (≈ 3.31 µM)
- MIC [29]: 0.6 µg/mL
